From ChEMBL document CHEMBL1201862, “PubChem BioAssay data set” (2004) come the findings set out here.

Calls of active or inactive are those of the source.

A short description of assay [1]: viability of uninfected HEp-2 cells – cell-based, HTS, cytotoxicity control for RSV inhibitor project, dose response (AID 2410). The assay is classed as functional. To be noted: human respiratory syncytial virus.
The target of another assay is Cytochrome P450 2C19 (Homo sapiens, UniProt P33261). The assay can be described thus: Cytochrome panel assay with activity outcomes. Panel member name: p450-cyp2c19 Compounds with AC50 equal or less than 10 uM are considered active. The assay is classed as functional. The note with it: read-out: AC50.
Chain of Cytochrome P450 2C19 (P33261 whole entry): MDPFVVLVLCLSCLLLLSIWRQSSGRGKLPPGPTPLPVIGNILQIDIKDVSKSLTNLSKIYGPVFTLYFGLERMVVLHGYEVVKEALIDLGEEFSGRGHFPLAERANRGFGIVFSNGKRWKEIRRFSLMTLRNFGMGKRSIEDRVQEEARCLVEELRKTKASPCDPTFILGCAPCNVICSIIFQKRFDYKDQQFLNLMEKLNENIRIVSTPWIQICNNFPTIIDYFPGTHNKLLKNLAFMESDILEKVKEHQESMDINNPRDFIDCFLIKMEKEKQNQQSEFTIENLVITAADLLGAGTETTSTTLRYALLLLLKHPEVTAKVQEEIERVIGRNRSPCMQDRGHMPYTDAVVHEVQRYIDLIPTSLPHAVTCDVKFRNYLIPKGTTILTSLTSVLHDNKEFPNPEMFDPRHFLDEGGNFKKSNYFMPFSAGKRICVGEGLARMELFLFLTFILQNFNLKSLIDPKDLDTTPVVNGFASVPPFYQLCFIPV
For a further assay, the target named is Cytochrome P450 2D6 (Homo sapiens, UniProt P10635).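 Also: CYP2D6 member of a cytochrome P450 panel assay.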
Chain of Cytochrome P450 2D6 (P10635 whole entry): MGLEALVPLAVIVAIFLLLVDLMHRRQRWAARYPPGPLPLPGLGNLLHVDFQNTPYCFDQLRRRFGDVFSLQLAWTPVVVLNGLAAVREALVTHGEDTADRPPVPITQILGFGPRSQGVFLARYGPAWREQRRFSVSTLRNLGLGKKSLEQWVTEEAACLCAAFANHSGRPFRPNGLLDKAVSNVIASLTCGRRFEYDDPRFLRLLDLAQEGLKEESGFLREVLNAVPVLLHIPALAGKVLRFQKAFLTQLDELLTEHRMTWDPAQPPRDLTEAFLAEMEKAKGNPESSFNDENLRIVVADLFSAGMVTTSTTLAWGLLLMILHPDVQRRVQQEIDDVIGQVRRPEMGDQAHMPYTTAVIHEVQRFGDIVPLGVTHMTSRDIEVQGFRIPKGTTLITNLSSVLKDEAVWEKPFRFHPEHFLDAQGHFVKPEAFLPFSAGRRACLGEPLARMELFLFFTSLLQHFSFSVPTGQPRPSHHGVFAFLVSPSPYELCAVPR
The next assay addresses Cytochrome P450 2C9 (Homo sapiens, UniProt P11712).
The target of assay [2] is T1, Heat shock factor protein 1 (Mus musculus, UniProt P38532).
T1 sequence (P38532 whole entry): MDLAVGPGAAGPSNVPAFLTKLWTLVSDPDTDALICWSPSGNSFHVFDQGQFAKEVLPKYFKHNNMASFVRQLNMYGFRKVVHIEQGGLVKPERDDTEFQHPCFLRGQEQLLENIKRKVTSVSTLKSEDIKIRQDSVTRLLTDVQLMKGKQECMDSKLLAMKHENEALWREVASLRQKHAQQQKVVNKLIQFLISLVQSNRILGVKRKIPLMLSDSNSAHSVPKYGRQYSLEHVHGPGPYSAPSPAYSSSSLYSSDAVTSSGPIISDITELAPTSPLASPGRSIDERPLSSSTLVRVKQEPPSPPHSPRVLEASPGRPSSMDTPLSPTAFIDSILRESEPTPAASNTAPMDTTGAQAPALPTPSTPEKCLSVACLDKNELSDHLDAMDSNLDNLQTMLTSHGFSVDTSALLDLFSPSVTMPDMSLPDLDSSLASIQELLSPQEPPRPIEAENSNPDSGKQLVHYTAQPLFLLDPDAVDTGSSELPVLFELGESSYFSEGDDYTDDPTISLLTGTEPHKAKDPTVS
The assay can be described thus: enhancement of HSF1-driven luciferase signal – cell-based, NIH3T3, luminescence, dose retest, confirmation (AID 435004).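 Also: stress induced by proteasome inhibitor MG132 added 30 min after compound; luciferase reporter driven by HSF1 response element in NIH3T3 cells; actives raise luminescence as potentiators of the MG132 stress response.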 The assay is classed as functional.

Assay [3] can be described thus: Luminescence Cell-Based Dose Response HTS to Identify Activators of Luciferase Translation or Activity in H4 […] Cells. [Related pubchem assays: 1829 (Project Summary), 1814 (Primary HTS)]. The assay is classed as functional.
The nature of assay [4]: Luminescence Cell-Based Dose Confirmation HTS to Identify Activators of 5'UTR Stem-Loop Driven Alpha-Synuclein mRNA Translation in H4 Neuroglioblastoma Cells. [Related pubchem assays: 1829 (Project Summary), 1814 (Primary HTS)]. The assay is classed as functional.
The next assay concerns H4. Briefly: Luminescence Cell-Based Dose Response HTS to Identify Activators of 5'UTR Stem-Loop Driven Prion Protein mRNA Translation in H4 Neuroglioblastoma Cells. [Related pubchem assays: 1829 (Project Summary), 1814 (Primary HTS)]. The assay is classed as functional. The note with it: Homo sapiens.
Assay [5] deals with T2, Rac GTPase-activating protein 1 (Homo sapiens, UniProt Q9H0H5).
T2 sequence (Q9H0H5 whole entry): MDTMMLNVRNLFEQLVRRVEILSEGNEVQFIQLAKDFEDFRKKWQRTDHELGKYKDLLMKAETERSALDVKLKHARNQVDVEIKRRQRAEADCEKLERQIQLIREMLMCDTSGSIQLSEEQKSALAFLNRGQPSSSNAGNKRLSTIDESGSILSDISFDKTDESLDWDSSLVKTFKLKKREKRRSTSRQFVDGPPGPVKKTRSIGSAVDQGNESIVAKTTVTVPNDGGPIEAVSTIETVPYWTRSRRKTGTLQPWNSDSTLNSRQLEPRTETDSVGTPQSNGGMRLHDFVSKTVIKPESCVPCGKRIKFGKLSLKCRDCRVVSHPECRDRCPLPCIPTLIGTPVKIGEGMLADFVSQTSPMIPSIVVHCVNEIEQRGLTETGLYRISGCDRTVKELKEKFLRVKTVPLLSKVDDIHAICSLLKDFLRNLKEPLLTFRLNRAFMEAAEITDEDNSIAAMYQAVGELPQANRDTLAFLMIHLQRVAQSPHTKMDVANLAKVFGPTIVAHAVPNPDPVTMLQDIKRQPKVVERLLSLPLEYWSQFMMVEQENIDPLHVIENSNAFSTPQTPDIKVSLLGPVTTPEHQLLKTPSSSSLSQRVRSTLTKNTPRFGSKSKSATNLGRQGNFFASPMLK
Briefly: blockers of MgcRacGAP-driven Rac1 GTP hydrolysis – biochemical, ADP Hunter fluorescence, primary and confirmatory, confirmation (AID 624330). In kind it is functional.

Another assay has as its target T3, Cytochrome P450 1A2 (Homo sapiens, UniProt P05177).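 Also: PubChem cytochrome P450 panel assay, CYP1A2 panel member.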
T3 sequence (P05177 whole entry): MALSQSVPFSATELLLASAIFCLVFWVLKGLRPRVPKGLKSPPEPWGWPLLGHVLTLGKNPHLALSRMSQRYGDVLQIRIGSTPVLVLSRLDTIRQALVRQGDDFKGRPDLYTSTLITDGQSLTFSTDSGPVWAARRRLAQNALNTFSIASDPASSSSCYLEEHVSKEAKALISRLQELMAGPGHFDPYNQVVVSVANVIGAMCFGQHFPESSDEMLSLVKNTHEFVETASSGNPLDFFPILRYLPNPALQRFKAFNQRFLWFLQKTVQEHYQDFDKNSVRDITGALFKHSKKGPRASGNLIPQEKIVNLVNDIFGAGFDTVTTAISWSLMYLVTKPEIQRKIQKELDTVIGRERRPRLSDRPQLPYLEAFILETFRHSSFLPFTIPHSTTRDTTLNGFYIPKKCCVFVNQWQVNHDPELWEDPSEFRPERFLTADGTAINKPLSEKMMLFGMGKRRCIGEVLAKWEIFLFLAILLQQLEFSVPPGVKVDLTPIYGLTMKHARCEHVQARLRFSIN

For the next assay, the target named is Cytochrome P450 3A4 (Homo sapiens, UniProt P08684).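 Also: CYP3A4 tested as one member of a cytochrome P450 panel screen.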
Chain of Cytochrome P450 3A4 (P08684 whole entry): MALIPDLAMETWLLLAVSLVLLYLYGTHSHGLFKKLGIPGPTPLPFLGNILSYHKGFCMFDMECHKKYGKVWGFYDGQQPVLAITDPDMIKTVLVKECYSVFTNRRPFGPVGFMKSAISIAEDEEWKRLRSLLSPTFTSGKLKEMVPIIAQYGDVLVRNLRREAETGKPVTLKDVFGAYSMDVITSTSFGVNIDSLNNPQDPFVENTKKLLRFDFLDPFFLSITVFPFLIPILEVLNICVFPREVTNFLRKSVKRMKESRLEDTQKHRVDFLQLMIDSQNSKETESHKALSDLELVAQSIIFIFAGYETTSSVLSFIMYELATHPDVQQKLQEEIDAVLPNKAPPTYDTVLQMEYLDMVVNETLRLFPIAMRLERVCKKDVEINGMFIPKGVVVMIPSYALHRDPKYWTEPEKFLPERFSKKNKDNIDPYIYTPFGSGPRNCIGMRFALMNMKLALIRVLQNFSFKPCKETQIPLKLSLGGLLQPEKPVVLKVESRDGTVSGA

Chain of Cytochrome P450 2C9 (P11712 whole entry): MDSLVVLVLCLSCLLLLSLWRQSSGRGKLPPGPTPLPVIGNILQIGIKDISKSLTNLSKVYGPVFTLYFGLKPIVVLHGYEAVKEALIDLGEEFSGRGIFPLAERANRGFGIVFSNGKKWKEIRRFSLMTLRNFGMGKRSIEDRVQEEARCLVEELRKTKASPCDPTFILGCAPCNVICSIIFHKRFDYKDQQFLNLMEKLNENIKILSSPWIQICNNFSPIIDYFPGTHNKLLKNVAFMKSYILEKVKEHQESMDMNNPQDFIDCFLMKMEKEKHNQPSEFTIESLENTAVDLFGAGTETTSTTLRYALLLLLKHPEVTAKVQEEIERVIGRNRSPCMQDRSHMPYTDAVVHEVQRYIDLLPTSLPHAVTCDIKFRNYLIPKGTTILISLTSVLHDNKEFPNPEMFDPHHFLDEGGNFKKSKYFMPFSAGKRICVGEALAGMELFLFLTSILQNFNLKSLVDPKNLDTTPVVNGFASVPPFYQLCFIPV

As for `CCc1cccc(NC(=O)c2cnn(-c3ccccc3)c2C)c1`, in assay [1], the CC50 (usually the concentration at which the toxic effect on the cells reaches its halfway point) was 29.9 µM (active).
As to `CCOC(=O)Nc1ccc(S(=O)(=O)NCc2ccccc2)cc1`, the AC50 (usually the concentration giving half of the maximal activity seen) on Cytochrome P450 2C19 was 2.24 µM (inconclusive); at Cytochrome P450 2D6, 14.1 µM (inconclusive); on Cytochrome P450 2C9 it was 5.62 µM (inconclusive).
For `CCOc1cc(/C=C2/SC(=S)N(CC3CCCO3)C2=O)ccc1O` (stereo unspecified), the EC50 (as a rule, the concentration at which the effect is half-maximal) in assay [2] was > 260 µM (inactive).
Take `CCNc1ccc(S(=O)(=O)N(C)C)cc1NCC(=O)Nc1ccccc1Br`: the EC50 in assay [2] was > 260 µM (inactive).
Consider `Cc1ccc(-n2nc3c(=O)n(CCCC(=O)NCc4ccccc4C)nc(C)c3c2C)cc1`, for which the CC50 in [1] is > 50 µM (active).
`CCc1nc2c(sc3nc4c(cc32)COC(C)(C)C4)c(=O)n1Cc1ccco1`: in [2], the EC50 is > 260 µM (inactive).
Consider `CN(C(=O)c1ccc(COc2ccccc2Br)o1)c1ccccc1`, for which the CC50 in assay [1] is 22.1 µM (active).
Consider `O=C(CSc1n[nH]c(-c2ccccc2)n1)c1ccccc1`, for which the EC50 in assay [3] was 5.83 µM (active); in assay [4], 15.3 µM (active); with H4 it was 6.22 µM (active).
In the case of `COc1cccc(Nc2ncc3ncc(=O)n(Cc4cccs4)c3n2)c1`, the concentration at half-maximal activity (AC50) on Cytochrome P450 2C19 was 3.98 µM (inconclusive); on Cytochrome P450 2D6, 3.98 µM (inconclusive); on Cytochrome P450 2C9 it was 2.51 µM (inconclusive).
Regarding `C[C@H](NC(=O)c1[nH]cnc1C(=O)N[C@@H](Cc1ccccc1)C(=O)OCc1ccccc1)C(=O)OC(C)(C)C`, the CC50 in assay [1] was 24.8 µM (active).
As to `COc1ccc(-c2cc3ccc(OCC(C)=O)cc3oc2=O)cc1`, the EC50 in assay [2] was > 260 µM (inactive).
On to `COc1cccc(OC)c1OCCCCN1CCCC1`, for which, in assay [5], the IC50 (as a rule, the concentration that gives 50% inhibition) is 204 µM (active). In addition, the AC50 at Cytochrome P450 1A2 is 15.8 µM (inconclusive); on Cytochrome P450 2D6, 14.1 µM (inconclusive).
For `O=c1c(Cl)cc(Cl)nn1-c1ccccc1`, the EC50 in assay [2] was 24.7 µM (active).
As to `CCc1nnc(NC(=O)C2CCN(C(=O)NC3CCCCC3)CC2)s1`, the AC50 is 0.158 µM (inconclusive) on Cytochrome P450 2C19 and 20 µM (inconclusive) at Cytochrome P450 2C9.
For the molecule `Cc1ccc(S(=O)(=O)N2CCC(=O)N(C(COCc3cccc(C)c3)Cc3ccccc3)CC2)cc1` (stereo unspecified), the CC50 in assay [1] was 28.7 µM (active).
In the case of `N#Cc1ccc(Oc2nc(C(N)=O)cc(-c3ccccc3)n2)cc1`, the AC50 at Cytochrome P450 2C19 was 25.1 µM (inconclusive).
For `COc1ccccc1[C@@H]1C(c2cccc(Cl)c2)=NN(c2ccccc2)[C@H]1C(=O)N1CCOC1=O`, the CC50 in assay [1] was 33.2 µM (active).
Regarding `C=C(CC1([C@@H](NP(=O)(c2ccccc2)c2ccccc2)[C@H]2C[C@@H]2CCN(C(=O)OCC)S(=O)(=O)c2ccc(C)cc2)CC1)c1ccccc1`, the values for the AC50 on Cytochrome P450 2C19 and at Cytochrome P450 2C9 were 1.26 µM (inconclusive) and 5.01 µM (inconclusive), respectively.
Turning to `Cc1cccc(NC(=O)CSc2cc(C)c(C#N)c3nc4ccccc4n23)c1`, in [2], the EC50 is 6.87 µM (active).
Regarding `Cc1ccccc1CN1CCN(CC(=O)NCCCN2CCN(c3ccc(F)cc3)CC2)C1=O`, the AC50 was 11.2 µM (inconclusive) on Cytochrome P450 2C19, 25.1 µM (inconclusive) on Cytochrome P450 3A4 and 12.6 µM (inconclusive) on Cytochrome P450 2C9.
As to `COc1cc(-c2c(-c3ccsc3)sc3ccccc23)cc(OC)c1OC`, in assay [1], the CC50 is 33.7 µM (active).
Still for that read-out and setting: to `N#Cc1ccc(S(=O)(=O)N2CCCN(c3nc4ccc(Cl)cc4s3)CC2)cc1` belongs > 50 µM (active).
Turning to `CC(C)(C)N(NS(=O)(=O)c1ccc(F)cc1)c1ccccc1`, the EC50 in [2] was > 260 µM (inactive).
On to `CN1CCN(c2ccc(NC(=O)COc3ccccc3)cc2Cl)CC1`, for which the results for the EC50 (in assay [3]; in assay [4]; with H4) were 0.229 µM (active), 0.214 µM (active) and 66.9 µM (active), respectively.
On to `O=C1CN(c2ccccc2)C(=S)N1C(=O)c1ccccc1`, for which the figures for the EC50 (in assay [3]; in [4]; in the assay on H4) were 106 µM (active), 57.7 µM (active) and 15.7 µM (inconclusive), respectively.
As for `O=C1[C@@H]2Cc3c([nH]c4ccccc34)C(c3ccc([N+](=O)[O-])cc3)N2C(=O)CN1C1CC1` (stereo partly specified), the EC50 in assay [2] is > 260 µM (inactive).
`CS(=O)(=O)Nc1cccc(-c2nccc(-n3ccnc3)n2)c1`: the concentration at half-maximal activity (AC50) on Cytochrome P450 2C19 was 39.8 µM (inconclusive).
As for `CCOc1ccc(/C=C2\CCC(C3CCCC3)C2=O)cc1` (stereo unspecified), the EC50 (in [3]; with H4) was > 120 µM (not active) throughout.
In the case of `CN1CCN(CCCNC(=O)c2cc3c(=O)n(C)c4ccccc4c3s2)CC1`, the EC50 in [3] is 11.7 µM (active); in assay [4], > 120 µM (not active); in the assay on H4, > 120 µM (not active).
With `COC(=O)c1sccc1NC(=O)c1cc(-c2ccc(C)cc2)nc2ccccc12`, the AC50 on Cytochrome P450 2C19 is 10 µM (inconclusive); on Cytochrome P450 1A2, 14.1 µM (inconclusive).
On to `CC1CCN(C(=S)SCc2nc(N)nc(Nc3ccccc3)n2)CC1`, for which the CC50 in assay [1] is 13.3 µM (active).
`CC(C)(C)n1nc2c(c1NC(=O)c1cc([N+](=O)[O-])ccc1Cl)CS(=O)(=O)C2`: the EC50 is 18.9 µM (active) in assay [3], 17.8 µM (active) in assay [4] and > 120 µM (not active) in the assay on H4.
For the molecule `OCCCN=C(S)Nc1ccc(Nc2ccccc2)cc1`, the IC50 in assay [5] was 88 µM (active).
With `CCc1ccc(NC(=O)C2CCN(S(=O)(=O)c3c(C)nc(O)nc3O)CC2)cc1`, on Cytochrome P450 2C19, the AC50 is 11.2 µM (inconclusive).
Turning to `COc1cc(NC(=O)COC(=O)/C=C/c2ccc(O)c(OC)c2)cc(OC)c1`, in assay [5], the IC50 was 51.7 µM (active).
Still for that read-out and setting: to `COc1ccccc1OCC#CCn1ccnc1` belongs 160 µM (active).
For the molecule `COc1ccc(CCNC(=O)C2CCCN(Cc3nc(-c4ccccc4C)oc3C)C2)cc1OC` (stereo unspecified), in [2], the EC50 was > 260 µM (inactive).
Regarding `Cc1cccc(-c2cccc(NC(=O)C3CCCN(C(=O)c4cccnc4)C3)c2)c1` (stereo unspecified), in assay [2], the EC50 is > 260 µM (inactive).
Regarding `COC(=O)CCC(=O)Nc1cccc2ccccc12`, the AC50 on Cytochrome P450 2C19 is 20 µM (inconclusive).
Take `O=C1CC(c2ccccc2)CC(O)=C1/C=N/c1ccc(O)cc1` (stereo unspecified): the IC50 in assay [5] is 26 µM (active).
The same measure, in the same setting: to `COc1ccccc1CNCCc1cccc(Cl)c1` belongs 135 µM (active).
Same read-out and setting: to `COc1ccc(C(=O)N/N=C/c2ccc(N3CCOCC3)s2)cc1OC` belongs 110 µM (active).
As for `CCOC(=O)N/N=C/c1ccccc1F`, at Cytochrome P450 2C19, the AC50 is 35.5 µM (inconclusive).
For the molecule `COc1cc2c(c(OC)c1CC=C(C)C)C[C@H](c1ccc(O)cc1O)CO2` [GLYASPERIN D], the CC50 in [1] is 15.3 µM (active).
